Reference: patent US11458144B1, “Methods for using 5-HMF analogs with increased solubility to inhibit or reverse RBC sickling” (King Abdulaziz University, priority 2021, dated 2022)

Experiments:
[1] = molecular target: T1, Hb (Homo sapiens, UniProt P68871+P69905, E7V); assay: Hb adduct formation (Hb modification) by cation-exchange HPLC, SS blood lysates; format: binding; details: 2 mM, SS RBCs
T1 construct: Using homozygous sickle (SS) blood from patients; endogenous in cells; host or cells: red blood cells of homozygous SS patient blood (hematocrit 20%); clarified lysates measured after incubation
Excerpt: The effect of the MMA compounds and positive control 5-HMF on RBC sickling, Hb modification, and Hb oxygen equilibrium was studied utilizing SS blood following previous procedure.^[27]
The Hb adduct formation study also used clarified lysates that were subjected to a cation-exchange HPLC (Hitachi D-7000 Series, Hitachi Instruments, Inc., San Jose, Calif.), and a weak cation-exchange column (Poly CAT A: 30 mm×4.6 mm, Poly LC, Inc., Columbia, Md.).
Using homozygous sickle (SS) blood from patients, the MMA compounds (MMA502, MMA503, MMA504, MMA505, and MMA509 were tested with 5-HMF as control for Hb adduct formation, effect on Hb affinity for oxygen and corresponding antisickling activities (RBC morphology study) using previously published protocols.^14,15

[2] = molecular target: T2, HbA (Homo sapiens, UniProt P68871+P69905); assay: Time-dependent Hb oxygen equilibrium study in normal whole blood; format: cell-based; details: 2 mM, 20% hematocrit, at 3 hours
T2 construct: time-dependent P50-shift of HbA in normal blood (20% hematocrit); endogenous in cells; host or cells: red blood cells in normal whole blood of adult donors (hematocrit 20%)
Description: The time-dependent effect of the MMA compounds and positive control 5-HMF on Hb oxygen affinity was studied using normal blood following previous procedure.^[15] Briefly, normal blood samples (hematocrit 20%) were incubated with the compounds at 37° C. for 24 h. Aliquots were taken at various time points and incubated in IL 237 tonometers (Instrumentation Laboratories, Inc. Lexington, Mass.) for 10 minutes at 37° C., and allowed to equilibrate at oxygen tensions 6, 20, and 40 mmHg. The samples were then aspirated into an ABL 700 Automated Blood Gas Analyzer (Radiometer) to determine the pH, partial pressure of CO2 (pCO2), partial pressure of oxygen (pO2), and Hb oxygen saturation values (SO2). The measured values of pO2 (mmHg) and SO2 at each pO2 value were then subjected to a non-linear regression analysis using the program Scientist (Micromath, Salt Lake City, Utah) to estimate P50 as previously reported.^[28]
5-HMF has a short half-life and poor oral bioavailability due to this metabolic instability, which in part prevented its development for chronic use. Nonetheless, this metabolic instability could be advantageous for parenteral formulation for acute use. […] Briefly, blood samples (hematocrit 20%) were incubated with the compounds at 37° C. for 24 h, and aliquots were taken at the various time points and used to determine the PO2 and SO2 using ABL 800 Automated Blood Gas Analyzer (Radiometer), and to estimate P50 as previously reported.^[10]
The study confirmed the trend in the biological potencies observed with SS blood.

O=Cc1ccc(CO)o1 [Compound 5-HMF, 5-hydroxymethylfurfural, reference compound]
% Hb-modification (adduct formation) [1]: 33%
% Hb-modification (adduct formation) ([1]; listed as 5HMF): 33.8 ± 11.7%
%P50 shift [2]: 35%
